According to ChEMBL document CHEMBL1697723, “A predictive ligand-based Bayesian model for human drug-induced liver injury” (Drug Metab Dispos, 2010):
Starred links: 1 amine or outer side, 2 acyl side, 3 side chain; linkers in the order of their positions; H or OH if unused. Positions of bridges follow the written chain, without caps; N, C: chain ends. Non-standard residues stand in square brackets, D forms with d. Residues, ends and D or L forms follow the SMILES beside them. Chains are numbered I, II in the order given. Actinocin(9to1) = Cc1c2oc3c(C)ccc(C(=O)[*:1])c3nc-2c(C(=O)[*:2])c(N)c1=O; NMeV = CN[C@H](C(=O)O)C(C)C; Sar = CNCC(=O)O

System: Hepatotoxicity
Test: Human drug-induced liver injury (DILI) modelling dataset from Ekins et al
Conditions: not given

SMILES	Hepatotoxicity
NCCCCCC(=O)O [AMINOCAPROIC ACID]	DILI negative (test set)
Cn1nnnc1SCC1=C(C(=O)[O-])N2C(=O)[C@@H](NC(=O)[C@H](O)c3ccccc3)[C@H]2SC1.[Na+] [CEFAMANDOLE SODIUM]	DILI positive (test set)
CC(NC(C)(C)C)C(=O)c1cccc(Cl)c1.Cl (stereo unspecified) [BUPROPION HYDROCHLORIDE]	DILI negative (training set)
CC1(c2ccccc2)Cc2cc(OCC(=O)O)c(Cl)c(Cl)c2C1=O (stereo unspecified) [INDACRINONE]	DILI positive (test set)
Nc1nc(Cl)nc2c1ncn2[C@H]1C[C@H](O)[C@@H](CO)O1 [CLADRIBINE]	DILI negative (training set)
C1CCC(C(CC2CCCCN2)C2CCCCC2)CC1 (stereo unspecified) [PERHEXILINE]	DILI positive (training set)
CS(=O)(=O)O.Cc1ccc(N(CC2=NCCN2)c2cccc(O)c2)cc1 [PHENTOLAMINE MESYLATE]	DILI positive (training set)
Cc1nc(C)c2c(n1)N(Cc1ccc(-c3ccccc3-c3nnn[nH]3)cc1)C(=O)CC2 [TASOSARTAN]	DILI positive (test set)
C=C(C)[C@H]1Cc2c(ccc3c2O[C@@H]2COc4cc(OC)c(OC)cc4[C@@H]2C3=O)O1 [ROTENONE]	DILI positive (test set)
CN(C)CCN(Cc1ccccc1)c1ccccn1.Cl [TRIPELENNAMINE HYDROCHLORIDE]	DILI positive (test set)
NC(=O)OCC(COC(N)=O)c1ccccc1 [FELBAMATE]	DILI positive (training set)
COc1ccc2c(c1)c(CC(=O)O)c(C)n2C(=O)c1ccc(Cl)cc1 [INDOMETHACIN]	DILI positive (training set)
COc1cc2ncnc(Nc3ccc(F)c(Cl)c3)c2cc1OCCCN1CCOCC1 [GEFITINIB]	DILI positive (test set)
O=C1C(CC[S+]([O-])c2ccccc2)C(=O)N(c2ccccc2)N1c1ccccc1 (stereo unspecified) [SULFINPYRAZONE]	DILI positive (test set)
CC(C)NCC(O)COc1cccc2ccccc12 (stereo unspecified) [PROPRANOLOL]	DILI negative (test set)
CC(C)(C)NCC(O)c1cc(O)cc(O)c1.O=S(=O)(O)O (stereo unspecified)	DILI positive (test set)
Cl.O=c1n(CCCN2CCN(c3cccc(Cl)c3)CC2)nc2ccccn12 [TRAZODONE HYDROCHLORIDE]	DILI positive (training set)
CCCc1nc2c(C)cc(-c3nc4ccccc4n3C)cc2n1Cc1ccc(-c2ccccc2C(=O)O)cc1	DILI negative (training set)
CN1CCN(CCCN2c3ccccc3Sc3ccc(Cl)cc32)CC1.O=C(O)/C=C\C(=O)O.O=C(O)/C=C\C(=O)O [PROCHLORPERAZINE MALEATE]	DILI positive (test set)

SMILES	Hepatotoxicity
COCCCC/C(=N\OCCN)c1ccc(C(F)(F)F)cc1 [FLUVOXAMINE]	DILI positive (training set)
CCN(CC)C(=O)/C(C#N)=C/c1cc(O)c(O)c([N+](=O)[O-])c1 [ENTACAPONE]	DILI negative (test set)
COc1cccc(OC)c1C(=O)N[C@@H]1C(=O)N2[C@@H]1SC(C)(C)[C@@H]2C(=O)[O-].[Na+]	DILI positive (training set)
OC[C@@H](O)[C@@H](O)[C@H](O)[C@@H](O)CO [SORBITOL]	DILI negative (training set)
N[C@@H]1[C@H]2CN(c3nc4c(cc3F)c(=O)c(C(=O)O)cn4-c3ccc(F)cc3F)C[C@@H]12 [TROVAFLOXACIN]	DILI positive (training set)
Cc1c2oc3c(C)ccc(C(=O)N[C@@H]4C(=O)N[C@H](C(C)C)C(=O)N5CCC[C@H]5C(=O)N(C)CC(=O)N(C)[C@@H](C(C)C)C(=O)O[C@@H]4C)c3nc-2c(C(=O)N[C@@H]2C(=O)N[C@H](C(C)C)C(=O)N3CCC[C@H]3C(=O)N(C)CC(=O)N(C)[C@@H](C(C)C)C(=O)O[C@@H]2C)c(N)c1=O [DACTINOMYCIN] (I: T[dV]P[Sar][NMeV] / II: T[dV]P[Sar][NMeV]; ester I:1-I:C, II:1-II:C; linker I:N-II:N via Actinocin(9to1))	DILI positive (test set)
CO[C@@H]1[C@@H](OC(N)=O)[C@@H](O)[C@H](Oc2ccc3c(O)c(NC(=O)c4ccc(O)c(CC=C(C)C)c4)c(=O)oc3c2C)OC1(C)C [NOVOBIOCIN]	DILI positive (training set)
CCOC(=O)Nc1ccc2c(c1)N(C(=O)CCN1CCOCC1)c1ccccc1S2.Cl [MORICIZINE HYDROCHLORIDE]	DILI positive (test set)
CC(=O)S[C@@H]1CC2=CC(=O)CC[C@]2(C)[C@H]2CC[C@@]3(C)[C@@H](CC[C@@]34CCC(=O)O4)[C@H]12 [SPIRONOLACTONE]	DILI positive (training set)
NN [HYDRAZINE]	DILI positive (test set)
O=C(c1ccc(OCCN2CCCCC2)cc1)c1c(-c2ccc(O)cc2)sc2cc(O)ccc12 [RALOXIFENE]	DILI negative (training set)
N[C@@H](Cc1ccc(O)c(O)c1)C(=O)O [LEVODOPA]	DILI negative (training set)
COc1cc(C(=O)NS(=O)(=O)c2ccccc2C)ccc1Cc1cn(C)c2ccc(NC(=O)OC3CCCC3)cc12 [ZAFIRLUKAST]	DILI positive (training set)
Nc1ncnc2c1ncn2[C@@H]1O[C@H](CO)[C@@H](O)[C@@H]1O [VIDARABINE]	DILI negative (training set)
Nc1nc(=O)[nH]cc1F [FLUCYTOSINE]	DILI positive (training set)
C[C@]12C=CC(=O)C=C1CC[C@@H]1[C@@H]2C(=O)C[C@@]2(C)[C@H]1CC[C@]2(O)C(=O)CO [PREDNISONE]	DILI negative (training set)
C#C[C@]1(O)CC[C@H]2[C@@H]3CCC4=Cc5oncc5C[C@]4(C)[C@H]3CC[C@@]21C [DANAZOL]	DILI positive (training set)
CC[C@H]1OC(=O)[C@H](C)[C@@H](O[C@H]2C[C@@](C)(OC)[C@@H](O)[C@H](C)O2)[C@H](C)[C@@H](O[C@@H]2O[C@H](C)C[C@H](N(C)C)[C@H]2O)[C@](C)(O)C[C@@H](C)CN(C)[C@H](C)[C@@H](O)[C@]1(C)O [AZITHROMYCIN]	DILI negative (test set)
C[C@@H]1[C@H](O)[C@@H](C)/C=C/C=C/C=C/C=C/C=C/C=C/C=C/[C@H](O[C@@H]2O[C@H](C)[C@@H](O)[C@H](N)[C@@H]2O)C[C@@H]2O[C@](O)(C[C@@H](O)C[C@@H](O)[C@H](O)CC[C@@H](O)C[C@@H](O)CC(=O)O[C@H]1C)C[C@H](O)[C@H]2C(=O)O [AMPHOTERICIN B]	DILI negative (test set)

SMILES	Hepatotoxicity
CCCCC(CC)COC(=O)C=Cc1ccc(OC)cc1 (stereo unspecified) [OCTINOXATE]	DILI positive (test set)
CC(=O)O.O=C(NCC1CCCCN1)c1cc(OCC(F)(F)F)ccc1OCC(F)(F)F (stereo unspecified) [FLECAINIDE ACETATE]	DILI positive (training set)
CC(=O)[C@H]1CC[C@H]2[C@@H]3CCC4=CC(=O)CC[C@]4(C)[C@H]3CC[C@]12C [PROGESTERONE]	DILI positive (training set)
S=C=Nc1ccccc1 [PHENYLISOTHIOCYANATE]	DILI positive (test set)
CCOC(=O)C1(c2ccccc2)CCN(CCC(C#N)(c2ccccc2)c2ccccc2)CC1.Cl [DIPHENOXYLATE HYDROCHLORIDE]	DILI negative (test set)
CC(C)(C)NCC(O)COc1cccc2c1CC(O)C(O)C2 (stereo unspecified) [NADOLOL]	DILI negative (training set)
C[C@@H](CO)NC(=O)[C@@H]1C=C2c3cccc4[nH]cc(c34)C[C@H]2N(C)C1.O=C(O)/C=C\C(=O)O [ERGONOVINE MALEATE]	DILI negative (training set)
CN1CCC(=C2c3ccccc3CC(=O)c3sccc32)CC1 [KETOTIFEN]	DILI negative (training set)
NC(CO)(CO)CO.O=C(c1ccccc1)c1ccc2n1CCC2C(=O)O (stereo unspecified) [KETOROLAC TROMETHAMINE]	DILI positive (training set)
CCOC(=O)c1ncn2c1CN(C)C(=O)c1cc(F)ccc1-2 [FLUMAZENIL]	DILI negative (training set)
Cc1cc(C(C)(C)C)c(O)c(C(C)(C)C)c1 [BUTYLATED HYDROXYTOLUENE]	DILI positive (test set)
Cc1cc(C(=O)NNCc2ccccc2)no1 [ISOCARBOXAZID]	DILI negative (test set)
CCCCCCCCCCCCCCCC(=O)OC[C@@H](NC(=O)C(Cl)Cl)[C@H](O)c1ccc([N+](=O)[O-])cc1 [CHLORAMPHENICOL PALMITATE]	DILI positive (training set)
O=c1[nH]cc(F)c(=O)[nH]1 [FLUOROURACIL]	DILI positive (test set)
O=C(O)c1ccccc1Nc1cccc(C(F)(F)F)c1 [FLUFENAMIC ACID]	DILI negative (test set)
CN1C(C(=O)Nc2nccs2)=C(O)c2ccccc2S1(=O)=O [SUDOXICAM]	DILI positive (test set)
C[C@]12CC[C@@H]3c4ccc(O)cc4CC[C@H]3[C@@H]1CC[C@@H]2O[C@@H]1O[C@H](C(=O)O)[C@@H](O)[C@H](O)[C@H]1O [ESTRADIOL 17B GLUCURONIDE]	DILI positive (training set)
CNNCc1ccc(C(=O)NC(C)C)cc1.Cl [PROCARBAZINE HYDROCHLORIDE]	DILI positive (training set)

Same assay, conditions: Liver

SMILES	Hepatotoxicity
NCCc1ccc(O)c(O)c1 [DOPAMINE]	DILI negative (training set)
O=P1(N(CCCl)CCCl)NCCCO1 (stereo unspecified) [CYCLOPHOSPHAMIDE ANHYDROUS]	DILI positive (training set)
CCN(CC)CC(=O)Nc1c(C)cccc1C [LIDOCAINE]	DILI negative (training set)
O=C1CN(/N=C/c2ccc([N+](=O)[O-])o2)C(=O)N1 [NITROFURANTOIN]	DILI positive (test set)
CNCCCN1c2ccccc2CCc2ccccc21 [DESIPRAMINE]	DILI negative (training set)
Cl.N[C@@H]1C[C@H]1c1ccccc1 [TRANYLCYPROMINE HYDROCHLORIDE]	DILI negative (training set)
c1cc[n+]2c(c1)-c1cccc[n+]1CC2 [DIQUAT]	DILI positive (test set)
COc1ccc2cc([C@H](C)C(=O)O)ccc2c1 [NAPROXEN]	DILI negative (test set)
Cc1cccc(Nc2ccccc2C(=O)O)c1C [MEFENAMIC ACID]	DILI positive (training set)
Oc1ncc(N(CCCl)CCCl)c(O)n1 [URACIL MUSTARD]	DILI positive (test set)
